Measurements published in publication PMC4760952, “Structural basis of interprotein electron transfer in bacterial sulfite oxidation” (eLife, 2015).

Biological target: T1, SorT (Sinorhizobium meliloti, UniProt Q92M24)
T1 construct: gene SMc04049; recombinant periplasmic SorT, purified as in Low et al. 2011; homodimer; 33 N-terminal residues not seen in the complex crystal
T1 sequence (Q92M24 32-399): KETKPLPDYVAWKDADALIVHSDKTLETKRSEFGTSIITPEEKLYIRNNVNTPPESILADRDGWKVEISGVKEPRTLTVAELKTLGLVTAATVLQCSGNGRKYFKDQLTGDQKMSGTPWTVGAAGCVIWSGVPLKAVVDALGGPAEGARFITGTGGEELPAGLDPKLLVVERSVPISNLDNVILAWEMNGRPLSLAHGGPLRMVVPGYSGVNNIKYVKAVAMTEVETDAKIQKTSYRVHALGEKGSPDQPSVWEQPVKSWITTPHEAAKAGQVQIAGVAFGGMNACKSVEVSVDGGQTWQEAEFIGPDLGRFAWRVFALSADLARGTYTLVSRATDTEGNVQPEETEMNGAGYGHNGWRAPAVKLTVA
Test: sulfite dehydrogenase assay, SorU reduction at […] nm
Assay type: biochemical
Settings: electron acceptor SorU

O=S(O)O [sulfite]
sulfite dehydrogenase assay, SorU reduction at 550 nm: Sulfite dehydrogenase enzyme assays were carried out as described previously
